Measured values taken from PubChem BioAssay (NCI).
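Exposure lasted 48 hours, with cells grown in 96-well plates and compounds tested at five concentrations. The concentration for 50% growth inhibition is given as GI50. Definition used: TGI = concentration required for complete inhibition of growth.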

Assays:
Test in all cases: inhibition of tumour cell growth, NCI panel, 48 h
OVCAR-8 ovarian = tested on: OVCAR-8 ovarian
A549 NSCLC = tested on: A549 NSCLC
UACC-62 melanoma = tested on: UACC-62 melanoma
HCT-15 colon = tested on: HCT-15 colon
SF-268 CNS = tested on: SF-268 CNS
RXF 393 renal = tested on: RXF 393 renal
HOP-62 NSCLC = tested on: HOP-62 NSCLC
BT-549 breast = tested on: BT-549 breast
CCRF-CEM leukemia = tested on: CCRF-CEM leukemia
KM12 colon = tested on: KM12 colon

With `O=C(O)C(/C=C/c1ccccc1)c1ccccc1` (stereo not given) the TGI (OVCAR-8 ovarian) was > 100 µM, the TGI (A549 NSCLC) was > 100 µM and the TGI (UACC-62 melanoma) was > 100 µM. The TGI (HCT-15 colon) was > 100 µM, the TGI (SF-268 CNS) was > 100 µM and the TGI (RXF 393 renal) was > 100 µM. For the same molecule, the TGI (HOP-62 NSCLC) was > 100 µM, the TGI (BT-549 breast) was > 100 µM and the TGI (CCRF-CEM leukemia) was > 100 µM.

Molecule `CC(C)N(Cc1ccccc1)c1c(S)ssc1=S` has a GI50 (OVCAR-8 ovarian) of 2.44 µM, a TGI (OVCAR-8 ovarian) of 22.2 µM and a GI50 (A549 NSCLC) of 2.41 µM. The TGI (A549 NSCLC) was 12.9 µM, the GI50 (UACC-62 melanoma) was 0.452 µM and the TGI (UACC-62 melanoma) was 15 µM. It also gave a GI50 (HCT-15 colon) of 3.16 µM, a TGI (HCT-15 colon) of 13.5 µM and a GI50 (SF-268 CNS) of 2.86 µM. For the same molecule, the TGI (SF-268 CNS) was 31.7 µM, the GI50 (KM12 colon) was 2.47 µM and the TGI (KM12 colon) was 21.7 µM. The GI50 (RXF 393 renal) was 2.17 µM, the TGI (RXF 393 renal) was 10.1 µM and the GI50 (HOP-62 NSCLC) was 4.24 µM. The TGI (HOP-62 NSCLC) was > 100 µM, the GI50 (BT-549 breast) was 3.01 µM and the TGI (BT-549 breast) was 9.21 µM. For the same molecule, the GI50 (CCRF-CEM leukemia) was 0.849 µM and the TGI (CCRF-CEM leukemia) was 6.66 µM.

With `COc1ccc(-c2cn(-c3cc(OC)c(OC)c(OC)c3)c(SCc3ccccc3)n2)cc1OC` the GI50 (OVCAR-8 ovarian) was > 100 µM, the TGI (OVCAR-8 ovarian) was > 100 µM and the GI50 (A549 NSCLC) was > 100 µM. For the same molecule, the TGI (A549 NSCLC) was > 100 µM, the GI50 (UACC-62 melanoma) was > 100 µM and the TGI (UACC-62 melanoma) was > 100 µM. The GI50 (HCT-15 colon) was > 100 µM, the TGI (HCT-15 colon) was > 100 µM and the GI50 (SF-268 CNS) was > 100 µM. The TGI (SF-268 CNS) was > 100 µM, the GI50 (KM12 colon) was > 100 µM and the TGI (KM12 colon) was > 100 µM. The GI50 (RXF 393 renal) was > 100 µM, the TGI (RXF 393 renal) was > 100 µM and the GI50 (HOP-62 NSCLC) was > 100 µM. For the same molecule, the TGI (HOP-62 NSCLC) was > 100 µM, the GI50 (BT-549 breast) was > 100 µM and the TGI (BT-549 breast) was > 100 µM. For the same molecule, the GI50 (CCRF-CEM leukemia) was > 100 µM and the TGI (CCRF-CEM leukemia) was > 100 µM.

For `CCC1C2Cc3ccc(O)cc3C1(CC)CCN2C` (stereo not given), the TGI (OVCAR-8 ovarian) was > 100 µM, the TGI (A549 NSCLC) was > 100 µM and the TGI (UACC-62 melanoma) was > 100 µM. The TGI (HCT-15 colon) was > 100 µM, the TGI (SF-268 CNS) was > 100 µM and the TGI (KM12 colon) was > 100 µM. The TGI (RXF 393 renal) was > 100 µM, the TGI (HOP-62 NSCLC) was > 100 µM and the TGI (BT-549 breast) was > 100 µM. For the same molecule, the TGI (CCRF-CEM leukemia) was > 100 µM.

`COc1cc(CSc2nc3ccc(C)cc3c(=O)n2-c2ccccc2)cc(OC)c1OC` was tested, and the GI50 (OVCAR-8 ovarian) was 4.51 µM, the TGI (OVCAR-8 ovarian) was > 100 µM and the GI50 (A549 NSCLC) was 1.59 µM. The TGI (A549 NSCLC) was > 100 µM, the GI50 (UACC-62 melanoma) was 1.93 µM and the TGI (UACC-62 melanoma) was > 100 µM. The GI50 (HCT-15 colon) was 0.577 µM, the TGI (HCT-15 colon) was > 100 µM and the GI50 (SF-268 CNS) was 6.37 µM. For the same molecule, the TGI (SF-268 CNS) was > 100 µM, the GI50 (KM12 colon) was 0.99 µM and the TGI (KM12 colon) was > 100 µM. For the same molecule, the GI50 (RXF 393 renal) was 1.1 µM, the TGI (RXF 393 renal) was > 25.5 µM and the GI50 (HOP-62 NSCLC) was 2.48 µM. The TGI (HOP-62 NSCLC) was > 100 µM, the GI50 (BT-549 breast) was 5.28 µM and the TGI (BT-549 breast) was > 100 µM. The GI50 (CCRF-CEM leukemia) was 2.66 µM and the TGI (CCRF-CEM leukemia) was > 100 µM.

`O=C(CCCCCCCCC(=O)N/N=C\c1ccccc1O)N/N=C\c1ccccc1O` showed a GI50 (OVCAR-8 ovarian) of 0.349 µM, a TGI (OVCAR-8 ovarian) of 5.8 µM and a GI50 (A549 NSCLC) of 0.81 µM. The TGI (A549 NSCLC) was > 25.2 µM, the GI50 (UACC-62 melanoma) was 0.331 µM and the TGI (UACC-62 melanoma) was 5.54 µM. The GI50 (HCT-15 colon) was 0.298 µM, the TGI (HCT-15 colon) was > 100 µM and the GI50 (SF-268 CNS) was 0.342 µM. For the same molecule, the TGI (SF-268 CNS) was 9.72 µM, the GI50 (KM12 colon) was 0.785 µM and the TGI (KM12 colon) was > 40.3 µM. For the same molecule, the GI50 (RXF 393 renal) was 0.353 µM, the TGI (RXF 393 renal) was 2.95 µM and the GI50 (HOP-62 NSCLC) was 0.418 µM. The TGI (HOP-62 NSCLC) was 4.72 µM, the GI50 (BT-549 breast) was 0.982 µM and the TGI (BT-549 breast) was > 100 µM. For the same molecule, the GI50 (CCRF-CEM leukemia) was 0.228 µM and the TGI (CCRF-CEM leukemia) was 17.4 µM.

For `Nc1c(C(=O)c2cccc(-c3ccncc3)c2)cnn1-c1ccc(F)cc1F`, the GI50 (OVCAR-8 ovarian) was 18.3 µM, the TGI (OVCAR-8 ovarian) was > 25 µM and the GI50 (A549 NSCLC) was 6.01 µM. For the same molecule, the TGI (A549 NSCLC) was > 25 µM, the GI50 (UACC-62 melanoma) was 5.34 µM and the TGI (UACC-62 melanoma) was > 25 µM. The GI50 (HCT-15 colon) was 2.19 µM, the TGI (HCT-15 colon) was > 25 µM and the GI50 (SF-268 CNS) was > 19.7 µM. The TGI (SF-268 CNS) was > 25 µM, the GI50 (KM12 colon) was 2.05 µM and the TGI (KM12 colon) was > 25 µM. For the same molecule, the GI50 (RXF 393 renal) was 8.75 µM, the TGI (RXF 393 renal) was > 25 µM and the GI50 (HOP-62 NSCLC) was 9.3 µM. The TGI (HOP-62 NSCLC) was > 25 µM, the GI50 (BT-549 breast) was 11.1 µM and the TGI (BT-549 breast) was > 25 µM. For the same molecule, the GI50 (CCRF-CEM leukemia) was 17 µM and the TGI (CCRF-CEM leukemia) was > 25 µM.

With `COc1ccc(-c2c[nH]c(C(=O)O)c2-c2cc(OC)c(OC)c(OC)c2)cc1` the GI50 (OVCAR-8 ovarian) was 5.44 µM, the TGI (OVCAR-8 ovarian) was > 100 µM and the GI50 (A549 NSCLC) was 6.61 µM. The TGI (A549 NSCLC) was > 100 µM, the GI50 (UACC-62 melanoma) was 4.13 µM and the TGI (UACC-62 melanoma) was > 100 µM. For the same molecule, the GI50 (HCT-15 colon) was 3.66 µM, the TGI (HCT-15 colon) was > 100 µM and the GI50 (SF-268 CNS) was > 100 µM. The TGI (SF-268 CNS) was > 100 µM, the GI50 (KM12 colon) was 4.59 µM and the TGI (KM12 colon) was > 100 µM. It also gave a GI50 (RXF 393 renal) of 2.33 µM, a TGI (RXF 393 renal) of 6.77 µM and a GI50 (HOP-62 NSCLC) of 5.87 µM. For the same molecule, the TGI (HOP-62 NSCLC) was > 100 µM, the GI50 (BT-549 breast) was 10.4 µM and the TGI (BT-549 breast) was > 100 µM. The GI50 (CCRF-CEM leukemia) was 4.08 µM and the TGI (CCRF-CEM leukemia) was > 100 µM.

Work on `C#Cc1c(F)ccc2cc(O)cc(-c3ncc4c(N5CC6CCC(C5)N6)nc(OC[C@@]56CCCN5C[C@H](F)C6)nc4c3F)c12` yielded a GI50 (OVCAR-8 ovarian) of 17.3 µM, a TGI (OVCAR-8 ovarian) of 36.4 µM and a GI50 (A549 NSCLC) of 10.9 µM. The TGI (A549 NSCLC) was 45.2 µM, the GI50 (UACC-62 melanoma) was 16.6 µM and the TGI (UACC-62 melanoma) was 30.5 µM. The GI50 (HCT-15 colon) was 34.7 µM, the TGI (HCT-15 colon) was > 50.6 µM and the GI50 (SF-268 CNS) was 12 µM. For the same molecule, the TGI (SF-268 CNS) was 25.4 µM, the GI50 (KM12 colon) was 5.03 µM and the TGI (KM12 colon) was 17.5 µM. The GI50 (RXF 393 renal) was 13.5 µM, the TGI (RXF 393 renal) was 27.5 µM and the GI50 (HOP-62 NSCLC) was 2.18 µM. It also gave a TGI (HOP-62 NSCLC) of 22.4 µM, a GI50 (BT-549 breast) of 8.22 µM and a TGI (BT-549 breast) of 22.8 µM. For the same molecule, the GI50 (CCRF-CEM leukemia) was 8.21 µM and the TGI (CCRF-CEM leukemia) was 29.1 µM.

For `C=C1C(=O)O[C@H]2[C@H]1CC/C(COC(=O)NCc1cn(C)c3ccccc13)=C\CC[C@@]1(C)O[C@@H]21`, the GI50 (OVCAR-8 ovarian) was 1.4 µM, the TGI (OVCAR-8 ovarian) was 5.18 µM and the GI50 (A549 NSCLC) was 2.17 µM. The TGI (A549 NSCLC) was 7.14 µM, the GI50 (UACC-62 melanoma) was 1.69 µM and the TGI (UACC-62 melanoma) was 4.33 µM. The GI50 (HCT-15 colon) was 0.611 µM, the TGI (HCT-15 colon) was 2.17 µM and the GI50 (SF-268 CNS) was 1.84 µM. For the same molecule, the TGI (SF-268 CNS) was 4.95 µM, the GI50 (KM12 colon) was 2.88 µM and the TGI (KM12 colon) was 7.67 µM. It also gave a GI50 (RXF 393 renal) of 1.26 µM, a TGI (RXF 393 renal) of 2.7 µM and a GI50 (BT-549 breast) of 0.469 µM. For the same molecule, the TGI (BT-549 breast) was 1.88 µM, the GI50 (CCRF-CEM leukemia) was 0.335 µM and the TGI (CCRF-CEM leukemia) was 2.26 µM.

With `Fc1ccc2c(c1)C1=NN(c3ccccc3)C(F)C1CO2` (stereo not given) the GI50 (OVCAR-8 ovarian) was 9.04 µM, the TGI (OVCAR-8 ovarian) was 27.3 µM and the GI50 (A549 NSCLC) was 7.96 µM. The TGI (A549 NSCLC) was 23.9 µM, the GI50 (UACC-62 melanoma) was 6.43 µM and the TGI (UACC-62 melanoma) was 14 µM. The GI50 (HCT-15 colon) was 8.19 µM, the TGI (HCT-15 colon) was 19.9 µM and the GI50 (SF-268 CNS) was 7.52 µM. It also gave a TGI (SF-268 CNS) of 23.2 µM, a GI50 (KM12 colon) of 16.1 µM and a TGI (KM12 colon) of 45.6 µM. For the same molecule, the GI50 (RXF 393 renal) was 7.33 µM, the TGI (RXF 393 renal) was 41.4 µM and the GI50 (HOP-62 NSCLC) was 19 µM. The TGI (HOP-62 NSCLC) was > 50 µM, the GI50 (BT-549 breast) was 10.4 µM and the TGI (BT-549 breast) was 22.2 µM.
